Data: US20080311589A1, “METHOD OF HIGH-THROUGHPUT SCREENING OF MOLECULES AND COMPOUNDS FOR THEIR EFFECTS ON BIOLOGICAL AND CHEMICAL PROCESSES” (priority 1999, published 2008)
“Also recorded” adds a separate entry of the source. Like-named read-outs stand apart in the source and are kept apart here.

What was measured:
[1] = test system: control reporter responsive to NFκB; conditions: transiently transfected
Procedure: LUCIFERASE ASSAYS: Our transient transfection luciferase assay was described previously by us (Stockwell et al., Chem Biol 5:385, 1998). Briefly, 100,000 Mv1Lu mink lung epithelial cells were transiently transfected in 12-well dishes with 400 ng p3TPLux or pNFkB-Lux, with or without 50 ng pFC-MEKK, in 300 μL minimal essential medium with non-essential amino acids. The DEAE-dextran/chloroquine/DMSO methods was used for transfection (Stockwell et al., Chem Biol 6:71, 1999). After cell lysis in 120 μL lysis buffer, a Beckman LS 6500 liquid scintillation counter was used in single photon mode to quantitate luminescence. For detection of luciferase activity in 6F cells (including the primary screen), 20,000 6F cells were seeded in 50 μL of 10% mink medium in each well of a white 384-well plate (Nalge Nune International; Naperville, Ill.; cat#164610) using a Multidrop 384 liquid dispenser (Lab Systems; Helsinki, Finland). […] After incubating the cells for five minutes on ice, 20 μL of ATP/luciferin solution was added (25 mM glycylglycine pH 7.8, 15 mM MgSO4, 4 mM EGTA, 6.25 mM K2HPO4 (Sigma; cat#P5504) pH 7.8, 5 mM DTT, 75 μM D-luciferin (Sigma, cat# L-9504, 2 mM ATP (Sigma; cat#A-7699)). Light output was immediately measured with an Analyst 384-well platereader (LJL), with 0.5 second counting time per well.

[2] = UV spectral shift binding assay with 1a; conditions: UV 240-310 nm
Procedure: (§1) UV SPECTRAL SHIFT BINDING ASSAY: A quartz cuvette with 1 mL deionized, distilled water was used as a blank on a Cary 1E UV-visible spectrophotomer. 1a or 2 was diluted to a final concentration of 15 μM or 20 μM, respectively, and the UV spectrum from 240 nm to 320 nm was measured. […] Upon addition of certain transition metals (Table 1), this peak shifted such that the new λmax was 273 nm and 310 nm, for 1a and 2, respectively. […] For the calculation of correlation coefficients, all values less than 7.5 μM were taken to be 7.5 μM, all values greater than 1000 μM were taken to be 1000 μm and all values less than 10 μM were taken to be 10 μM.

[3] = test system: S. cerevisiae strain BY4741
Procedure: TRANSCRIPTIONAL PROFILING: We performed transcriptional profiling on yeast cells according to known techniques. […] We therefore set thresholds of 0.5 fold and 2.0 fold for transcriptional repression and transcriptional activation, respectively, in our experimental comparisons of untreated cells and cells treated with test compounds.
Briefly, S. cerevisiae strain BY4741 (haploid) was streaked on a YPD plate, grown for 3 days at 30° C., and used to inoculate a 50 mL overnight culture of YPD. This culture was diluted into pre-warmed YPD such that A600=0.04 and allowed to grow until A600=0.47. The culture was split into pre-warmed flasks, with 50 mL in each of three flasks and 150 mL in a fourth flask. […] The cultures were centrifuged at 2500 g at room temperature for five minutes and the pelle frozen in liquid nitrogen. Total RNA was purified from each culture by hot acidic phenol/chloroform extraction and ethanol precipitation. Poly-A RNA wad purified with a Qiagen Oligotex mRNA Midi Kit (Qiagen; Valencia, Calif.; cat#70042). Fluorescently-labeled probe was prepared from […] poly-A mRNA and applied to glass slides that had been printed with 6240 yeast ORFs (James Hardwick, Jeffrey Tong, and Stuart L. Schreiber, unpublished results). The microarray was scanned with an Array Works scanner and the results were analyzed with Gene Spring software.

[4] = test system: transiently transfected TGFβ-responsive reporter; test: transient transfection luciferase assay, p3TPLux; type: cell-based, mink
Procedure: LUCIFERASE ASSAYS: Our transient transfection luciferase assay was described previously by us (Stockwell et al., Chem Biol 5:385, 1998). Briefly, 100,000 Mv1Lu mink lung epithelial cells were transiently transfected in 12-well dishes with 400 ng p3TPLux or pNFkB-Lux, with or without 50 ng pFC-MEKK, in 300 μL minimal essential medium with non-essential amino acids. The DEAE-dextran/chloroquine/DMSO methods was used for transfection (Stockwell et al., Chem Biol 6:71, 1999). After cell lysis in 120 μL lysis buffer, a Beckman LS 6500 liquid scintillation counter was used in single photon mode to quantitate luminescence. For detection of luciferase activity in 6F cells (including the primary screen), 20,000 6F cells were seeded in 50 μL of 10% mink medium in each well of a white 384-well plate (Nalge Nune International; Naperville, Ill.; cat#164610) using a Multidrop 384 liquid dispenser (Lab Systems; Helsinki, Finland). After 16 hours, medium was removed using a 24 channel wand (V&P Scientific, Inc.; San Diego, Calif.; cat#VP 186L), the cells were washed with 75 μL of 0.2% mink medium (containing 0.2% FBS), and reagents were added in 40 μL of 0.2% medium. For the primary screen, reagents were added by pin transfer using 384 polypropylene pin arrays (Matrix Technologies; Hudson, N.H.). After 24 hours, the cells were cooled on ice and washed twice with 75 μL Hanks Balanced Salt Solution (HBSS; GibcoBRL; cat#24020-117). Then 20 μL lysis buffer (25 mM glycylglycine (Sigma; cat#E-0396), 1% Triton X-100 (Sigma; cat#T-9284), 1 mM dithiothreitol (DTT; Sigma; cat#D-5545), 1 mM phenylmethylsulfonyl fluoride (PMSF; Sigma; cat#P-7626)) was added to each well with a Multidrop. After incubating the cells for five minutes on ice, 20 μL of ATP/luciferin solution was added (25 mM glycylglycine pH 7.8, 15 mM MgSO4, 4 mM EGTA, 6.25 mM K2HPO4 (Sigma; cat#P5504) pH 7.8, 5 mM DTT, 75 μM D-luciferin (Sigma, cat# L-9504, 2 mM ATP (Sigma; cat#A-7699)). Light output was immediately measured with an Analyst 384-well platereader (LJL), with 0.5 second counting time per well.

[5] = test system: mink lung epithelial cells; test: BrdU cytoblot assay for S-phase progression; type: cell-based
From the text: BRDU CYTOBLOT ASSAY: The BrdU cytoblot assay for S-phase progression was described previously by Stockwell et al. (Chem. Biol. 6:71, 1999; see also, U.S. Patent Application Ser. No. 60/094,305, incorporated herein by reference).
Compounds that mimic TGFβ activity would be expected to be capable of inducing cell cycle arrest or apoptosis, and in particular to block DNA replication, in responding cells. We therefore used an S-phase progression cytoblot assay to test whether our compounds could inhibit 5-bromodeoxyuridine (BrdU) incorporation into mink epithelial cells. […] Both compounds were therefore classified as true TGFβ mimics.

BS-C-1 cells = test: fluorescence microscopy and live imaging of BS-C-1 cells; type: cell-based, monkey; conditions: BS-C-1 cells; 1A at 40 μM for 4 hours
From the text: We investigated the phenotype of mammalian cells (BS-C-I) treated with the compounds of group III. […] Our examination of the distribution of microtubules, actin, and chromatin in fixed cells by fluorescence microscopy allowed us to divide the small molecules into three classes.
We then asked whether the chromosomes surrounding the monoastral microtubule array maintain microtubule attachment.

[6] = test system: p3TPLux TGFβ-responsive reporter in 6F mink lung cells; test: luciferase assay, stably transfected p3TPLux; type: cell-based; conditions: for synergy with TGFβ: 400 pM TGFβ1; for reporter gene expression: stably transfected reporter
Procedure: FIG. 19 graphs the dose-response of transcriptional activation of compounds 1a and 2 in the presence (*) or absence (•) of 400 pM TGFβ1. 20,000 6F mink lung cells ( ) were seeded in 384 well plates, allowed to attach for 16 hours in 10% mink medium, and were treated with the indicated concentrations of 1a or 2.
We screened more than 16,000 chemical compounds to identify those that specifically activated expression of a reporter gene (luciferase) under the control of TGFβ-responsive elements in stably transfected mammalian cells (mink lung epithelial cells). […] Given the structural similarity of compounds 1a-c, we expected that all three were operating through a common mechanism. We therefore continued testing on only one, compound 1a, as representative of the group.

microtubules [7] = test: competition with fluorescently labeled taxol; type: binding; conditions: oregon green labeled taxol, fluorescence polarization
From the text: (§2) Since taxol and discodermolide prevent cold depolymerization of microtubules (Hung et al., Chem. Biol. 3:287, 1996), we tested whether synstab A-treatment of cells would cause a similar effect. […] This mutually exclusive binding is consistent with the observed taxol-like effects of synstab A on cells and on purified microtubules.
Three different assays were used to confirm microtubule-stabilizing effects in the in vitro tubulin polymerization assay by repeating the above experiment. In addition, three independent experiment assessments were carried out. 1) In vitro competition experiments with fluorescence-labeled taxol. […] 2) In vivo incubation of BSCI-cells (a monkey epithelial cell line) with 40 μM 1A for four hours. In brief, BSCI cells were seeded on glass coverslips and cultured overnight. […] 3) treatment of cells with 1A resulted index by the phosphonucleolin (TG-3) cytoblot as described above as measured visually.

[8] = UV spectral shift binding assay with 2; conditions: UV 240-310 nm
Procedure: as §1

[9] = test system: 6F mink lung epithelial cells; test: anti-BrdU cytoblot for suppressors of rapamycin; type: cell-based
From the text: FIG. 9. […] A 4 mm scale bar is shown. […] A 4 mm scale bar is shown.

phosphonucleolin = phosphonucleolin cytoblot, suppression of nocodazole-induced mitotic arrest; type: cell-based, human; conditions: A549 cells; pretreated 8 hour, then 250 nM nocodazole 12 hours
Procedure: FIG. 10. The ability of anti-proliferative agents such as juglone to suppress the effects of nocodazole-induced mitotic arrest can be detected in a cytoblot. […] (b) A549 human lung carcinoma cells were seeded at a density of 4000 cells in 40 μL of DMEM+ in each well of a white, opaque 384-well plate and incubated overnight at 37° C. with 5% CO2. Cells were either untreated or pretreated with juglone at the indicated concentrations for 8 hour. Subsequently, nocodazole at a final concentration of 250 nM was added to all wells in a final volume of 50 μL and the cells incubated for a further 12 hours. A phosphonucleolin cytoblot was performed. […] A 4 mm scale bar is shown.
The treatment of cells with any small molecule that arrests cells outside of mitosis will suppress the ability of nocodazole to arrest cells in mitosis. […] It was hypothesized that inhibition of Pin1, which is an essential, highly conserved PPIase required for proper mitotic division in Xenopus and yeast, would prevent entry into mitosis and consequently prevent accumulation of phosphonucleolin (FIG. 10a).

microtubules [10] = test: cold depolymerization of microtubules in cells; type: cell-based; conditions: 4° C., 0.5 h, taxol 10 μM, 4 h, synstab A 25 μM
From the text: as §2

TG-3 staining = test: fluorescence-activated cell sorting and TG-3 immunoblotting; type: cell-based; conditions: concentrations that do not affect viability

CN(c1ccc2cccc(O)c2n1)c1ccc2cccc(O)c2n1 [Compound 1a, 2,2′-(methylimino)bis-8(quinolinol)]
activation of NFκB-responsive control reporter [1]: Neither compound activated
binding of 1a to metals (shift in UV absorbance maximum) [2]: binds strongly to Zn^2+, Fe^2+, Cu^2+, Cu^+, and Al^3+, and less well to Mn^2+, Co^2+, and Ni^2+
[…] IN PRESENCE OF COMPOUND […] IN ABSENCE OF COMPOUND ([3]; gene YAL045C (ARN1), Multi-drug resistance pump, repressed genes): 0.49
[…] IN PRESENCE OF COMPOUND […] IN ABSENCE OF COMPOUND ([3]; gene YBL005WA, TyA transposon, activated genes): 2.2
[…] IN PRESENCE OF COMPOUND […] IN ABSENCE OF COMPOUND ([3]; gene YHL040C (ARN1), multidrug resistance pump, activated genes): 2.0
activation of transiently versus stably transfected TGFβ-responsive reporter [4]: less effective
BrdU incorporation [5]: inhibited BrdU incorporation; also recorded: inhibition of BrdU incorporation
microtubule, spindle and chromosome phenotype (BS-C-1 cells): showed bundling of interphasic microtubules and aberrant mitotic spindles with misaligned chromosomes
synergy with TGFβ [6]: synergistic with TGFβ
reporter gene expression [6]: dose-dependent increase in reporter gene expression
competition for binding of fluorescently labeled taxol (microtubules [7]): compete off bound labeled taxol

O=C(NN=Cc1ccccc1O)c1ccc(O)cc1 [Compound 2, Benzoic acid, 4-hydroxy, [(2-hydroxyphenyl)methylene]hydrazide]
activation of NFκB-responsive control reporter [1]: Neither compound activated
effect on gene expression in yeast cells [3]: no detectable effect on gene expression in yeast cells
binding of 2 to metals (shift in UV absorbance maximum) [8]: binds well to Fe^3+, Cu^2+, Cu^+, and CO^2+, and also shows some binding to Ni^2+
activation of transiently versus stably transfected TGFβ-responsive reporter [4]: less effective
BrdU incorporation [5]: inhibited BrdU incorporation; also recorded: inhibition of BrdU incorporation
synergy with metals in reporter activation [6]: synergized strongly with both Cu^+ and Cu^2+ but not with other metals
synergy with TGFβ [6]: synergistic with TGFβ
activity in screen (TGFβ-responsive luciferase reporter) ([6]; primary screen of more than 16,000 compounds): showed activity in our screen
reporter gene expression [6]: dose-dependent increase in reporter gene expression

C=CC[C@@H]1/C=C(\C)C[C@H](C)C[C@H](OC)[C@H]2O[C@@](O)(C(=O)C(=O)N3CCCC[C@H]3C(=O)O[C@H](/C(C)=C/[C@@H]3CC[C@@H](O)[C@H](OC)C3)[C@H](C)[C@@H](O)CC1=O)[C@H](C)C[C@@H]2OC [FK506]
excess of FK506 that suppresses the antiproliferative effect of rapamycin ([9]; rapamycin and FK506 together 16 hours, then with BrdU 16 hours): 30-100 fold

O=C1C=CC(=O)c2c(O)cccc21 [juglone]
concentrations that prevent accumulation of phosphonucleolin (phosphonucleolin): greater than 25 microM

CO[C@H]1C[C@@H]2CC[C@@H](C)[C@@](O)(O2)C(=O)C(=O)N2CCCC[C@H]2C(=O)O[C@H]([C@H](C)C[C@@H]2CC[C@@H](O)[C@H](OC)C2)CC(=O)[C@H](C)/C=C(\C)[C@@H](O)[C@@H](OC)C(=O)[C@H](C)C[C@H](C)/C=C/C=C/C=C/1C [rapamycin]
concentration that prevents BrdU incorporation ([9]; 6F mink lung cells): 20 nM

CC(=O)O[C@H]1C(=O)[C@@]2(C)[C@H]([C@H](OC(=O)c3ccccc3)[C@]3(O)C[C@H](OC(=O)[C@H](O)[C@@H](NC(=O)c4ccccc4)c4ccccc4)C(C)=C1C3(C)C)[C@]1(OC(C)=O)CO[C@@H]1C[C@@H]2O [taxol]
protection from cold depolymerization (microtubules [10]): noticeably stabilized microtubules
microtubule, spindle and chromosome phenotype (BS-C-1 cells): less pronounced than that induced by synstab A
TG-3 reactivity of total cell extracts (TG-3 staining): increased TG-3 reactivity
